Legend:
bedstraw = experiment: Test B pre/postemergence bedstraw; assay type: in vivo, Galium aparine
Method in brief: (§1)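 Response is a visual 0-to-10 score relative to untreated plants, where 0 means no effect and 10 means complete control, taken twelve to sixteen days after application. Treatments went onto soil at planting and onto foliage of 1- to 4-leaf plants, using a surfactant-containing non-phytotoxic solvent.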

blackgrass = experiment: Test B pre/postemergence blackgrass; assay type: in vivo, Alopecurus myosuroides
Method in brief: as §1

surinam grass = experiment: Test B pre/postemergence surinam grass; assay type: in vivo, Brachiaria decumbens
Method in brief: as §1

cocklebur = experiment: Test B pre/postemergence cocklebur; assay type: in vivo, Xanthium strumarium
Method in brief: as §1

corn = experiment: Test B pre/postemergence corn; assay type: in vivo, Zea mays
Method in brief: as §1

giant foxtail = experiment: Test B pre/postemergence giant foxtail; assay type: in vivo, Setaria faberii
Method in brief: as §1

morningglory = experiment: Test B pre/postemergence morningglory; assay type: in vivo, Ipomoea hederacea
Method in brief: as §1

pigweed = experiment: Test B pre/postemergence pigweed; assay type: in vivo, Amaranthus retroflexus
Method in brief: as §1

rape = experiment: Test B pre/postemergence rape; assay type: in vivo, Brassica napus
Method in brief: as §1

soybean = experiment: Test B pre/postemergence soybean; assay type: in vivo, Glycine max
Method in brief: as §1

sugar beet = experiment: Test B pre/postemergence sugar beet; assay type: in vivo, Beta vulgaris
Method in brief: as §1

velvetleaf = experiment: Test B pre/postemergence velvetleaf; assay type: in vivo, Abutilon theophrasti
Method in brief: as §1

purple nutsedge = experiment: Test B pre/postemergence purple nutsedge; assay type: in vivo, Cyperus rotundus
Method in brief: as §1

smallflower flatsedge = experiment: Test B flood test smallflower flatsedge; assay type: in vivo, Cyperus difformis
Method in brief: (§2)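 Flood test on plants grown to the 2-leaf stage; treated plants kept in greenhouse twelve to sixteen days, then visually rated against controls on a 0 (no effect) to 10 (complete control) scale.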

duck salad = experiment: Test B flood test duck salad; assay type: in vivo, Heteranthera limosa
Method in brief: as §2

bamyardgrass = experiment: Test B flood test barnyardgrass; assay type: in vivo, Echinochloa crus-galli
Method in brief: as §2

[1] = Preemergence, Rate 62 g/ha, scale of 0 to 10 where 0 is no effect and 10 is complete control
[2] = Preemergence, Rate 125 g/ha, 0 is no effect, 10 is complete control
[3] = Preemergence, Rate 250 g/ha, scale 0 to 10, 0 is no effect, 10 is complete control
[4] = Preemergence, Rate 500 g/ha, scale 0 to 10 (0 no effect, 10 complete control)
[5] = Rate 62 g/ha, Postemergence, scale of 0 to 10 where 0 is no effect and 10 is complete control
[6] = Rate 125 g/ha, Postemergence, scale 0 to 10
[7] = Rate 500 g/ha, Postemergence, scale 0 to 10
[8] = Rate 62 g/ha, headed Pre-emergence (flood test species), scale 0 to 10 (0 no effect, 10 complete control)
[9] = Rate 125 g/ha, Pre-emergence, flood test species, scale 0 to 10 where 0 is no effect and 10 is complete control
[10] = Rate 250 g/ha, Pre-emergence, flood-test species, scale 0 to 10, 0 is no effect, 10 is complete control
[11] = Rate 500 g/ha, headed Pre-emergence (flood test species), scale 0 to 10 (0 no effect, 10 complete control)

**Q.** Which results are given for `Cc1nc(C)c(Cn2c(=O)on(C(=O)N(c3ccc(F)cc3)C(C)C)c2=O)s1` [Compound 192]?
**A.** Bedstraw plant response rating (bedstraw; [1]): 0; Bedstraw plant response rating (0 to 10 scale) (bedstraw; [2]): 0; Bedstraw plant response rating (bedstraw; [3]): 0; Bedstraw plant response rating (bedstraw; [4]): 0; Bedstraw plant response rating (bedstraw; [5]): 0; Bedstraw plant response rating (bedstraw; [6]): 0; Plant response rating (0 to 10; 0 is no effect, 10 is complete control), Bedstraw (bedstraw; Rate 250 g/ha, Postemergence): 0; Bedstraw plant response rating (bedstraw; [7]): 0; Blackgrass plant response rating (blackgrass; [1]): 5; Blackgrass plant response rating (0 to 10 scale) (blackgrass; [2]): 5; Blackgrass plant response rating (blackgrass; [3]): 6; Blackgrass plant response rating (blackgrass; [4]): 7; Blackgrass plant response rating (blackgrass; [5]): 0; Blackgrass plant response rating (blackgrass; [6]): 0; Plant response rating (0 to 10; 0 is no effect, 10 is complete control), Blackgrass (blackgrass; Rate 250 g/ha, Postemergence): 0; B. signalgrass plant response rating (surinam grass; [1]): 0; B. signalgrass plant response rating (0 to 10 scale) (surinam grass; [2]): 0; B. signalgrass plant response rating (surinam grass; [3]): 6; B. signalgrass plant response rating (surinam grass; [4]): 6; B. signalgrass plant response rating (surinam grass; [5]): 0; B. signalgrass plant response rating (surinam grass; Rate 125 g/ha, Postemergence, scale 0 (no effect) to 10 (complete control)): 0; Plant response rating, B. signalgrass (surinam grass; Rate 250 g/ha, Postemergence, scale 0 to 10, 0 is no effect, 10 is complete control): 0; B. signalgrass plant response rating (surinam grass; Rate 500 g/ha, Postemergence, scale 0 to 10, 0 no effect, 10 complete control): 2; Cocklebur plant response rating (cocklebur; [1]): 0; Cocklebur plant response rating (0 to 10 scale) (cocklebur; [2]): 0; Cocklebur plant response rating (cocklebur; [3]): 0; Cocklebur plant response rating (cocklebur; [4]): 0; Cocklebur plant response rating (cocklebur; [5]): 0; Cocklebur plant response rating (cocklebur; [6]): 1; Plant response rating (0 to 10; 0 is no effect, 10 is complete control), Cocklebur (cocklebur; Rate 250 g/ha, Postemergence): 2; Cocklebur plant response rating (cocklebur; [7]): 5; Corn plant response rating (corn; [1]): 0; Corn plant response rating (0 to 10 scale) (corn; [2]): 0; Corn plant response rating (corn; [3]): 0; Corn plant response rating (corn; [4]): 4; Corn plant response rating (corn; [5]): 0; Corn plant response rating (corn; [6]): 0; Plant response rating (0 to 10; 0 is no effect, 10 is complete control), Corn (corn; Rate 250 g/ha, Postemergence): 0; Corn plant response rating (corn; [7]): 0; Giant foxtail plant response rating (giant foxtail; [1]): 8; Giant foxtail plant response rating (0 to 10 scale) (giant foxtail; [2]): 9; Giant foxtail plant response rating (giant foxtail; [3]): 10; Giant foxtail plant response rating (giant foxtail; [4]): 10; Giant foxtail plant response rating (giant foxtail; [5]): 0; Giant foxtail plant response rating (giant foxtail; [6]): 0; Plant response rating (0 to 10; 0 is no effect, 10 is complete control), Giant foxtail (giant foxtail; Rate 250 g/ha, Postemergence): 0; Giant foxtail plant response rating (giant foxtail; [7]): 1; Morningglory plant response rating (morningglory; [1]): 0; Morningglory plant response rating (0 to 10 scale) (morningglory; [2]): 0; Morningglory plant response rating (morningglory; [3]): 0; Morningglory plant response rating (morningglory; [4]): 3; Morningglory plant response rating (morningglory; [5]): 1; Morningglory plant response rating (morningglory; [6]): 3; Plant response rating (0 to 10; 0 is no effect, 10 is complete control), Morningglory (morningglory; Rate 250 g/ha, Postemergence): 6; Morningglory plant response rating (morningglory; [7]): 6; Redroot pigweed plant response rating (pigweed; [1]): 0; Redroot pigweed plant response rating (0 to 10 scale) (pigweed; [2]): 2; Redroot pigweed plant response rating (pigweed; [3]): 5; Redroot pigweed plant response rating (pigweed; [4]): 9; Redroot pigweed plant response rating (pigweed; [5]): 0; Redroot pigweed plant response rating (pigweed; [6]): 1; Plant response rating (0 to 10; 0 is no effect, 10 is complete control), Redroot pigweed (pigweed; Rate 250 g/ha, Postemergence): 3; Redroot pigweed plant response rating (pigweed; [7]): 7; Rape plant response rating (rape; [1]): 0; Rape plant response rating (0 to 10 scale) (rape; [2]): 0; Rape plant response rating (rape; [3]): 4; Rape plant response rating (rape; [4]): 9; Rape plant response rating (rape; [5]): 0; Rape plant response rating (rape; [6]): 0; Plant response rating (0 to 10; 0 is no effect, 10 is complete control), Rape (rape; Rate 250 g/ha, Postemergence): 2; Rape plant response rating (rape; [7]): 2; Soybean plant response rating (soybean; [1]): 0; Soybean plant response rating (0 to 10 scale) (soybean; [2]): 0; Soybean plant response rating (soybean; [3]): 2; Soybean plant response rating (soybean; [4]): 2; Soybean plant response rating (soybean; [5]): 3; Soybean plant response rating (soybean; [6]): 3; Plant response rating (0 to 10; 0 is no effect, 10 is complete control), Soybean (soybean; Rate 250 g/ha, Postemergence): 3; Soybean plant response rating (soybean; [7]): 3; Sugarbeets plant response rating (sugar beet; [1]): 0; Sugarbeets plant response rating (0 to 10 scale) (sugar beet; [2]): 0; Sugarbeets plant response rating (sugar beet; [3]): 0; Sugarbeets plant response rating (sugar beet; [4]): 8; Sugarbeets plant response rating (sugar beet; [5]): 0; Sugarbeets plant response rating (sugar beet; [6]): 0; Plant response rating (0 to 10; 0 is no effect, 10 is complete control), Sugarbeets (sugar beet; Rate 250 g/ha, Postemergence): 0; Sugarbeets plant response rating (sugar beet; [7]): 5; Velvetleaf plant response rating (velvetleaf; [1]): 0; Velvetleaf plant response rating (velvetleaf; [3]): 5; Velvetleaf plant response rating (velvetleaf; [4]): 6; Velvetleaf plant response rating (velvetleaf; [5]): 0; Velvetleaf plant response rating (velvetleaf; [6]): 2; Plant response rating (0 to 10; 0 is no effect, 10 is complete control), Velvetleaf (velvetleaf; Rate 250 g/ha, Postemergence): 3; Nutsedge plant response rating (purple nutsedge; [1]): 0; Nutsedge plant response rating (0 to 10 scale) (purple nutsedge; [2]): 0; Nutsedge plant response rating (purple nutsedge; [5]): 0; Nutsedge plant response rating (purple nutsedge; [6]): 0; Plant response rating (0 to 10; 0 is no effect, 10 is complete control), Nutsedge (purple nutsedge; Rate 250 g/ha, Postemergence): 0; Nutsedge plant response rating (purple nutsedge; [7]): 0; S. Flatsedge plant response rating (smallflower flatsedge; [8]): 0; S. Flatsedge plant response rating (smallflower flatsedge; [9]): 0; S. Flatsedge plant response rating (smallflower flatsedge; [10]): 0; S. Flatsedge plant response rating (smallflower flatsedge; Rate 500 g/ha, Pre-emergence, flood test species, scale 0 to 10 (0 no effect, 10 complete control)): 0; Ducksalad plant response rating (duck salad; [8]): 0; Ducksalad plant response rating (duck salad; [9]): 0; Ducksalad plant response rating (duck salad; [10]): 0; Plant response rating, Ducksalad (duck salad; [11]): 0; Barnyardgrass plant response rating (bamyardgrass; [8]): 0; Barnyardgrass plant response rating (bamyardgrass; [9]): 0; Barnyardgrass plant response rating (bamyardgrass; [10]): 0; Plant response rating, Barnyardgrass (bamyardgrass; [11]): 0

Reference: US6737383B1, “Herbicidal oxadiazolidines” (priority 1999, dated 2004)
